Patent US10669272B2, “Substituted naphthyridinone compounds useful as T cell activators” (BRISTOL-MYERS SQUIBB COMPANY, priority 2018, dated 2020)
Where two headings read alike, the source gives them in different places.

Key:
[1] = target: T1, human DGKζ (Homo sapiens, UniProt Q13574); experiment: DGKζ LIPGLO assay (extruded liposome substrate), in vitro DGK inhibition; assay type: biochemical; conditions: read-out: DGKz LIPGLO IC50
T1 construct: TVMV protease cleavage site (C); Hexa-His (C); made in house; host or cells: Sf9 insect cells (baculovirus, Bac-to-Bac)
T1 sequence (Q13574 with tags, fused parts or gaps isoform Q13574-4): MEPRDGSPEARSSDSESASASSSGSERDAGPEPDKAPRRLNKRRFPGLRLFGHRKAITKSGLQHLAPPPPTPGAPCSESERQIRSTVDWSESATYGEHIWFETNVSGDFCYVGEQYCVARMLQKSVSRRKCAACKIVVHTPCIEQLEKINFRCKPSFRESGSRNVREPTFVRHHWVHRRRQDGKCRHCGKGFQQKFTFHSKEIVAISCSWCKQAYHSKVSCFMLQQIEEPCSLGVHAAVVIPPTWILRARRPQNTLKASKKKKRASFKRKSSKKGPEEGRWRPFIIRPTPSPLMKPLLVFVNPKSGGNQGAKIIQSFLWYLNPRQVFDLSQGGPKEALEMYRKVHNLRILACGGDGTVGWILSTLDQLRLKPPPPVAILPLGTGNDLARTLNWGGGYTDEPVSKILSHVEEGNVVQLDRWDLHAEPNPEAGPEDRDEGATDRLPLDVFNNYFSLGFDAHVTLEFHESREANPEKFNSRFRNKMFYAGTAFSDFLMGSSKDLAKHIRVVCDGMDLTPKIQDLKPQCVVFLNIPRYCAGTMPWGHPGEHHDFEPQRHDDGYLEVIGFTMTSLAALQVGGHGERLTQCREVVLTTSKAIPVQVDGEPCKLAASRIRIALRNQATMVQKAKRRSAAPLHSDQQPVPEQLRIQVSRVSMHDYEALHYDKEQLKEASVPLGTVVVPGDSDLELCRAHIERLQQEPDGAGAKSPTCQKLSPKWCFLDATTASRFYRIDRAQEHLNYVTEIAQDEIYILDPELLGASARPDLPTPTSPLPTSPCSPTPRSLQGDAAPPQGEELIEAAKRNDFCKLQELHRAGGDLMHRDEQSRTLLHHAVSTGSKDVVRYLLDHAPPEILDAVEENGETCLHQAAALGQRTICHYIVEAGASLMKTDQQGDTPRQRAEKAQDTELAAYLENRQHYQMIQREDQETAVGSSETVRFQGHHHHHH

[2] = target: T2, human DGKα (Homo sapiens, UniProt P23743); experiment: DGKα LIPGLO assay (extruded liposome substrate), in vitro DGK inhibition; assay type: biochemical; conditions: read-out: DGKa LIPGLO IC50
T2 construct: TVMV protease cleavage site (C); Hexa-His (C); made in house; host or cells: Sf9 insect cells (baculovirus, Bac-to-Bac)
T2 sequence (P23743 with tags, fused parts or gaps): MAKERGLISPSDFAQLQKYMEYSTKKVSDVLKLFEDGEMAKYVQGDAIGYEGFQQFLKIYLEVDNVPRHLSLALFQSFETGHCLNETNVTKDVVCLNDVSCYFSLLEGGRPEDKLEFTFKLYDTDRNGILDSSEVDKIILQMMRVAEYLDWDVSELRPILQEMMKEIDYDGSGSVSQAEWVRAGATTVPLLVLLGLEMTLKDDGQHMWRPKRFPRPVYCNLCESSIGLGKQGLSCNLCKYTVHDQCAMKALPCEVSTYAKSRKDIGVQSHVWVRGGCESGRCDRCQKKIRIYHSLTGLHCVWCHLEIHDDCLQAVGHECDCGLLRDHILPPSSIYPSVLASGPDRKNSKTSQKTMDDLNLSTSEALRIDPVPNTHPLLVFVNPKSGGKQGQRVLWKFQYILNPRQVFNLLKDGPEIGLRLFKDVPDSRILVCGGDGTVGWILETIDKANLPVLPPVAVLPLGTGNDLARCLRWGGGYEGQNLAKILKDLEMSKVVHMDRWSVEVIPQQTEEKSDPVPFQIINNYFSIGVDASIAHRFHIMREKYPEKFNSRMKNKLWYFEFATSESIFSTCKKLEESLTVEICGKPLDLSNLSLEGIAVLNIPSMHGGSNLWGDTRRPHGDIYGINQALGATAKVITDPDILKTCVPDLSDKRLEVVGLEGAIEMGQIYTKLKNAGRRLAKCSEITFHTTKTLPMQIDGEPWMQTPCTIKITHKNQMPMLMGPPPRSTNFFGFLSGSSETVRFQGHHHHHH

[3] = tested on: Human venous whole blood; experiment: Human whole blood IFN-γ assay; assay type: cell-based; conditions: human whole blood, read-out: INFg Whole Blood Normalized Agonist EC50;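 further: blood from healthy donors exposed to compound for 1 h before stimulation with anti-CD3 and anti-CD28 at 1 µg/mL each, IFN-γ quantified in supernatant by AlphaLISA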
[4] = anti-CD3 plus anti-CD28, 24 hours, 3 μM reference compound = 100% activation
[5] = Homo sapiens, 24 h, anti-CD3 plus anti-CD28, 24 hours, 3 μM reference compound = 100% activation
[6] = normalized to 3 μM reference compound with anti-CD3 plus anti-CD28 as 100% activation
[7] = Homo sapiens, 24 h, normalized to 3 μM reference compound with anti-CD3 plus anti-CD28 as 100% activation

Structure (SMILES) | IC50 ([1]; DGKζ liposome (LIPGLO) assay) [nM] | IC50 ([2]; DGKα liposome (LIPGLO) assay) [nM] | IC50 ([1]; liposome (LIPGLO) assay) [nM] | IC50 ([2]; liposome (LIPGLO) assay) [nM] | EC50 [3, 4] [nM] | EC50 [3, 5] [nM] | EC50 [3, 6] [nM] | EC50 [3, 7] [nM]
C[C@@H]1CN(c2c(C#N)c(=O)n(C)c3ccc(C#N)nc23)CCN1Cc1cccc(C(F)(F)F)n1 [Example 991] | 800 | 310 | – | – | – | 11000 | – | –
Cc1ccnc(C(c2ccc(Cl)cc2)N2C[C@H](C)N(c3cc(=O)n(C)c4ccc(C#N)nc34)C[C@H]2C)c1 (single isomer, unassigned) [Example 448] | – | – | 660 | 660 | – | – | 1100 | –
COc1ccc(C(C)N2C[C@H](C)N(c3cc(=O)n(C)c4ccc(C#N)nc34)C[C@H]2C)cc1OCCN1CCOCC1 (stereo partly drawn) [Example 1305] | – | – | 7500 | 130000 | – | – | – | 20000
C[C@@H]1CN(c2c(C#N)c(=O)n(C)c3ccc(C#N)nc23)CCN1C(c1ccc(F)cc1)c1ccccc1F (stereo partly drawn) [Example 882] | 960 | 820 | – | – | 1700 | – | – | –
CC(c1ccc(C2(C#N)CC2)cc1)N1C[C@H](C)N(c2cc(=O)n(C)c3ccc(C#N)nc23)C[C@H]1C (stereo partly drawn) [Example 1254] | – | – | 340 | 1900 | – | – | 1800 | –
CC(C)Oc1ccc(C(C)N2C[C@H](C)N(c3cc(=O)n(C)c4ccc(C#N)nc34)C[C@H]2C)cn1 (single isomer, unassigned) [Example 1324] | – | – | 140 | 12000 | – | – | 690 | –
C[C@@H]1CN(c2c(C#N)c(=O)n(C)c3ccc(C#N)nc23)CCN1C(c1ccccc1)c1ccc(F)cc1 (single isomer, unassigned) [Example 879] | 1100 | 600 | – | – | 1200 | – | – | –
CC(c1ccc(F)cc1)N1CCN(c2c(C#N)c(=O)n(C)c3ccc(C#N)nc23)C[C@H]1C (single isomer, unassigned) [Example 959] | 5900 | 2400 | – | – | 5400 | – | – | –
Cc1ccc(C(c2cccc(Cl)c2)N2CCN(c3c(C#N)c(=O)n(C)c4ccc(C#N)nc34)C[C@H]2C)nc1 (single isomer, unassigned) [Example 929] | 1100 | 7700 | – | – | 1300 | – | – | –
Cc1noc(C(c2ccc(F)cc2)N2C[C@H](C)N(c3cc(=O)n(C)c4ccc(C#N)nc34)C[C@H]2C)n1 (stereo partly drawn) [Example 745] | 470 | 380 | – | – | – | 1100 | – | –
Cc1ccc(C(c2cc(C)ccn2)N2C[C@H](C)N(c3cc(=O)n(C)c4ccc(C#N)nc34)C[C@H]2C)cc1 (single isomer, unassigned) [Example 461] | – | – | 3600 | 1400 | – | – | 2100 | –
C[C@@H]1CN(c2cc(=O)n(C)c3ccc(C#N)nc23)[C@@H](C)CN1C(c1ccc(F)cc1)c1nc(N2CCOCC2)no1 (stereo partly drawn) [Example 750] | 240 | 480 | – | – | 150 | – | – | –
C[C@@H]1CN(c2c(C#N)c(=O)n(C)c3ccc(C#N)nc23)CCN1C(c1ccc(F)cc1)c1cnn(C)c1 (stereo partly drawn) [Example 1017] | 8400 | 7200 | – | – | 3300 | – | – | –
C[C@@H]1CN(c2c(C#N)c(=O)n(C)c3ccc(C#N)nc23)CCN1C(c1ccc(F)cc1)c1cccc2c1OC(F)(F)O2 (single isomer, unassigned) [Example 939] | 4000 | 83000 | – | – | – | 2600 | – | –
C[C@@H]1CN(c2c(C#N)c(=O)n(C)c3ccc(C#N)nc23)CCN1Cc1ccc(C(C)(C)C)cc1 [Example 1013] | 47000 | 7300 | – | – | – | 1400 | – | –
C[C@@H]1CN(c2cc(=O)n(C)c3ccc(C#N)nc23)[C@@H](C)CN1C(c1ccc(F)cc1)c1nc(C2CC2)co1 (single isomer, unassigned) [Example 777] | 750 | 68 | – | – | – | 770 | – | –
CC(c1ccc(OC(F)(F)F)cc1)N1CCN(c2c(C#N)c(=O)n(C)c3ccc(C#N)nc23)C[C@H]1C (single isomer, unassigned) [Example 962] | > 250000 | 1500 | – | – | 20000 | – | – | –
CC[C@H]1CN(C(c2ccc(F)cc2)c2ccc(C#N)cc2)[C@H](COC)CN1c1cc(=O)n(C)c2ccc(C#N)nc12 (single isomer, unassigned) [Example 1170] | – | – | 170 | 760 | – | – | – | 230
C[C@@H]1CN(c2c(C#N)c(=O)n(C)c3ccc(C#N)nc23)CCN1Cc1ccccc1C#N [Example 1009] | 6700 | 1800 | – | – | – | 20000 | – | –
C[C@@H]1CN(c2cc(=O)n(C)c3ccc(C#N)nc23)[C@@H](C)CN1C(Cc1nc(C2CC2)no1)c1ccc(F)cc1 (single isomer, unassigned) [Example 1326] | – | – | 470 | 1200 | – | – | 1700 | –

The next lines start with results.

IC50 ([1]; DGKζ liposome (LIPGLO) assay) [nM] | IC50 ([2]; DGKα liposome (LIPGLO) assay) [nM] | IC50 ([1]; liposome (LIPGLO) assay) [nM] | IC50 ([2]; liposome (LIPGLO) assay) [nM] | Structure (SMILES) | EC50 [3, 4] [nM] | EC50 [3, 5] [nM] | EC50 [3, 6] [nM] | EC50 [3, 7] [nM]
290 | 85 | – | – | C[C@@H]1CN(c2cc(=O)n(C)c3ccc(C#N)nc23)[C@@H](C)CN1C(c1ccc(OC(F)(F)F)cc1)c1nc(C2CC2)no1 (single isomer, unassigned) [Example 759] | 270 | – | – | –
– | – | 15000 | 1700 | CC(c1ccc(F)cn1)N1C[C@H](C)N(c2cc(=O)n(C)c3ccc(C#N)nc23)C[C@H]1C (single isomer, unassigned) [Example 641] | – | – | 5900 | –
– | – | 6000 | 440 | C[C@@H]1CN(c2cc(=O)n(C)c3ccc(C#N)nc23)[C@@H](C)CN1C(c1ccc(F)cc1)C(F)(F)F (single isomer, unassigned) [Example 582] | – | – | 1700 | –
– | – | 210 | 400 | CC[C@@H]1CN(c2cc(=O)n(C)c3ccc(C#N)nc23)[C@@H](C)CN1C(c1ccc(F)cc1)c1ccc(F)cc1 [Example 1097] | – | – | – | 660
– | – | 610 | 530 | CC[C@@H]1CN(c2cc(=O)n(C)c3ccc(C#N)nc23)[C@@H](C)CN1Cc1ccc(OC(F)(F)F)c(F)c1 [Example 1332] | – | – | – | 4400
– | – | 860 | 310 | CC[C@H]1CN(C(C)c2ccc(OC(F)F)cc2)[C@H](C)CN1c1cc(=O)n(C)c2ccc(C#N)nc12 (single isomer, unassigned) [Example 1145] | – | – | 3300 | –
– | – | 89 | 120 | CC[C@@H]1CN(c2cc(=O)n(C)c3ccc(C#N)nc23)[C@@H](C)CN1C(c1ccc(Cl)cc1)c1ccccn1 (single isomer, unassigned) [Example 422] | – | – | 220 | –
– | – | 3900 | 36 | CC(c1ccc(F)cn1)N1C[C@H](C)N(c2cc(=O)n(C)c3ccc(C#N)nc23)C[C@H]1C (single isomer, unassigned) [Example 640] | – | – | 1600 | –
– | – | 160 | 75000 | COCCOc1cc(C(C)N2C[C@H](C)N(c3cc(=O)n(C)c4ccc(C#N)nc34)C[C@H]2C)ccc1C#N (single isomer, unassigned) [Example 1320] | – | – | – | 7000
– | – | 6700 | 1300 | C[C@@H]1CN(c2cc(=O)n(C)c3ccc(C#N)nc23)[C@@H](C)CN1Cc1ccc(OC(F)(F)F)cc1C#N [Example 581] | – | – | – | 2700
– | – | 810 | 320 | CCC(c1ccc(OC(F)(F)F)cc1F)N1C[C@H](C)N(c2cc(=O)n(C)c3ccc(C#N)nc23)C[C@H]1C (stereo partly drawn) [Example 438, 8-((2S,5R)-4-(1-(2-fluoro-4-(trifluoromethoxy)phenyl)propyl)-2,5-dimethylpiperazin-1-yl)-5-methyl-6-oxo-5,6-dihydro-1,5-naphthyridine-2-carbonitrile] | – | – | – | 740
– | – | 370 | 8.3 | CC[C@H]1CN(C(C)c2ccc(OC(F)(F)F)cc2)[C@H](C)CN1c1cc(=O)n(C)c2ccc(C#N)nc12 (single isomer, unassigned) [Example 1141] | – | – | 470 | –
– | – | 7500 | 6200 | C[C@@H]1CN(c2cc(=O)n(C)c3ccc(C#N)nc23)[C@@H](C)CN1C(c1ccc(F)cc1)C(F)(F)CO (single isomer, unassigned) [Example 1310] | – | – | – | 3600
– | – | 340 | 950 | CC[C@@H]1CN(c2cc(=O)n(C)c3ccc(C#N)nc23)[C@@H](C)CN1C(c1ccc(F)cc1)c1ccnc(C)n1 (stereo partly drawn) [Example 419, 8-((2S,5R)-5-ethyl-4-((4-fluorophenyl)(2-methylpyrimidin-4-yl)methyl)-2-methylpiperazin-1-yl)-5-methyl-6-oxo-5,6-dihydro-1,5-naphthyridine-2-carbonitrile] | – | – | 960 | –
– | – | 11000 | 1100 | CC[C@H]1CN(C(C)c2ccc(F)cc2)[C@H](C)CN1c1cc(=O)n(C)c2ccc(C#N)nc12 (single isomer, unassigned) [Example 1136] | – | – | 2300 | –
– | – | 2900 | 1300 | C[C@@H]1CN(c2cc(=O)n(C)c3ccc(C#N)nc23)[C@@H](C)CN1C(c1ccc(F)cc1)c1cc(F)ccn1 (stereo partly drawn) [Example 472, 8-((2S,5R)-4-((4-fluorophenyl)(4-fluoropyridin-2-yl)methyl)-2,5-dimethylpiperazin-1-yl)-5-methyl-6-oxo-5,6-dihydro-1,5-naphthyridine-2-carbonitrile] | – | – | – | 1300
– | – | 1400 | 33000 | COc1cc(C(C)N2C[C@H](C)N(c3cc(=O)n(C)c4ccc(C#N)nc34)C[C@H]2C)ccc1F (single isomer, unassigned) [Example 1232] | – | – | 20000 | –
